# Assay results from patent publication US20240002425A1, “NOVEL AMINOALKYL GLUCOSAMINIDE 4-PHOSPHATE DERIVATIVE” (DAIICHI SANKYO COMPANY, LIMITED, priority 2020, published 2024).
# Tested on: binding between RBD and hACE2
# Details: in vivo
smiles,measurement,value
"CCCCCCCCCCC[C@H](CC(=O)N[C@@H](CO[C@@H]1O[C@H](CO[C@]2(C(=O)O)C[C@@H](O)[C@@H](O)[C@@H]([C@H](O)CO)O2)[C@@H](OP(=O)(O)O)[C@H](OC(=O)C[C@@H](CCCCCCCCCCC)OC(=O)CCCCCCCCC)[C@H]1NC(=O)C[C@@H](CCCCCCCCCCC)OC(=O)CCCCCCCCC)CC(=O)O)OC(=O)CCCCCCCCC [Example 2(2e), Ammonium (3R)-3-{[(3R)-3-(decanoyloxy)tetradecanoyl]amino}-4-({3-O-[(3R)-3-(decanoyloxy)tetradecanoyl]-2-{[(3R)-3-(decanoyloxy)tetradecanoyl]amino}-2-deoxy-6-O-(3-deoxy-α-D-manno-oct-2-ulopyranonosyl)-4-O-phosphono-β-D-glucopyranosyl}oxy)butanoate]",inhibition of binding between RBD and hACE2 by nasal wash,inhibited the binding between RBD and hACE2
